The target in this assay is Indoleamine 2,3-dioxygenase 1 (Homo sapiens, UniProt P14902). In words: Inhibitory Activity Assay: The tested compounds and the reference compounds are dissolved in DMSO to prepare a high concentration of storage solution. The stock solution of reference compound was diluted with DMSO to prepare a 100× solution. In the first column of the working plate, 8 μL above tested compounds and 8 μL 100× reference compound were respectively added as the highest concentration, and then the highest concentrations were subjected to three times dilution to obtain 11 concentrations and prepare 100× solution. 0.5 μL solution was transferred from the above plate to the detection plate. To each well was added 0.5 μL 100× compound solution. For HPE and ZPE control wells, 0.5 μL 100% DMSO was added.25 μL 2×IDO1 (His-tag) enzyme solution (containing L-ascorbic acid, methylene blue, and catalase) was added to each well. 25 μL reaction solution without IDO1 (His-tag) enzyme was added into HPE control well. The test plate was centrifugated at 1000 rpm for 1 minute to mix well. Then, the test plate was incubated at room temperature for 30 minutes. 25 μL above 2× substrate (L-tryptophan) solution was added to each well. The test plate was centrifugated at 1000 rpm for 1 minute to mix well. The detection plate was placed on ELISA (SpectraMax M5e), the temperature was set at 25° C., and the absorbance (OD value) was measured at 320 nm every 10 minutes till 60 minutes.
Sequence of Indoleamine 2,3-dioxygenase 1 (P14902 whole entry): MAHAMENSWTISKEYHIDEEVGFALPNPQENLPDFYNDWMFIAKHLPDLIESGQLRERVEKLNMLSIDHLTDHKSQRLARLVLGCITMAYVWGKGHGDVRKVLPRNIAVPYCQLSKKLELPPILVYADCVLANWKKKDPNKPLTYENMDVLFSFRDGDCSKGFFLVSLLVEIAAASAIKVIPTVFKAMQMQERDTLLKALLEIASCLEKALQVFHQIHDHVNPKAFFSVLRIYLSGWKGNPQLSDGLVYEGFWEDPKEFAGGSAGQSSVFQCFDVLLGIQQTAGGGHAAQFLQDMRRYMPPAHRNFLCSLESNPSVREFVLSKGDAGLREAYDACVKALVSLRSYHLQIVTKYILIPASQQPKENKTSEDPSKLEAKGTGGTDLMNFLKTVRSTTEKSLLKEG

Compound `NS(=O)(=O)N1CCC(CSc2nonc2C(=NO)Nc2ccc(F)c(Br)c2)C1` (stereo unspecified) gave an IC50 of 107 nM.

As usually defined, the IC50 is the concentration needed to halve the response being measured. Low readings indicate greater potency in that assay, high ones weaker potency in that assay.

(Values after ChEMBL document CHEMBL5729320, “Indoleamine-2,3-dioxygenase inhibitor, the preparative method and the use thereof” (2022).)
